In patent US20250288584A1, “COMBINATIONS COMPRISING POSITIVE ALLOSTERIC MODULATORS OR ORTHOSTERIC AGONISTS OF METABOTROPIC GLUTAMATERGIC RECEPTOR SUBTYPE 2 AND THEIR USE” (JANSSEN PHARMACEUTICA NV, priority 2014, published 2025):
Where two headings read alike, the source gives them in different places.

What was measured:
[1] = tested on: 6 Hz (44 mA) psychomotor seizures; assay: 6 Hz psychomotor seizure test, 44 mA (alone, combination with LEV, isobolographic study); assay type: in vivo, mice; conditions: Mus musculus, 6 Hz (44 mA); [CAS 1092453-15-0] 20 mg/kg, alone; read-out: # protected/# tested (converted)
Experimental: Test compounds were administered using an optimal fluid volume to body fluid ratio. Test compounds were administered to mice in a volume of 0.01 mL/g of body weight (White H. S., et al., General Principles: Experimental selection, quantification, and evaluation of antiepileptic drugs, in Antiepileptic Drugs, Fourth Edition, […], and B. S. Meldrum, Editors. 1995, Raven Press, Ltd.: New York, pp. 99-110). For subcutaneous (s.c.) administration, the test compounds were administered into a loose fold of skin along the back of the animal except compound 6-b, which was administered orally (p.o). […] The animals were maintained on an adequate diet (Prolab RMH 3000) and allowed free access to food and water, except during the short time they were removed from their cage for testing. Animals newly received in the laboratory were allowed sufficient time to correct for possible food and water restriction incurred during transit before being employed in testing. All mice were housed in plastic cages in specially constructed rooms with controlled humidity, exchange of air and controlled lighting (12 hours on-12 hours off). The animals were housed, fed, and handled in a manner consistent with the recommendations in the National Council Publication, “Guide for the Care and Use of Laboratory Animals”. In the determination of an ED50 or TD50 for each test compound, the first dose administered is usually the same dose as that used in a successful TPE determination. […] Third and fourth doses were selected to produce an evenly spaced dose response line. […] The 6 Hz seizure test is used as a model of pharmacoresistant limbic seizures. […] Focal seizures were induced in mice via corneal stimulation (6 Hz, 0.2 msec rectangular pulse, 3 sec duration; Barton et al. 2001). Mice were tested at either 32 mA or 44 mA. […] The seizures that arise from corneal stimulation in this assay are characterized by a minimal clonic phase followed by stereotyped automatistic behaviors including stun, forelimb clonus, twitching of the vibrissae, and Straub-tail. Animals not displaying these behaviors were considered protected. […] In addition to recording the efficacy and toxicity data for these compounds alone or in combination, both plasma and brain samples were collected from each of the groups for pharmacokinetic/pharmacokinetic analysis. No pharmacokinetic interaction was observed based on compound levels in the plasma and brain samples (data not shown). Isobolographic studies were conducted for the combined administration of Co. […] Studies were conducted according to previously described methods (Madsen et al. 2011). Initial ED50 values were determined for both Co. […] Co. […] Doses used were proportional to calculated ED50 values. […] Experimental treatment doses (see Table 4) were based on theoretical values and adjusted according to observed effects. Experimentally determined ED50 (+SEM) values for each fixed dose-ratio combination were compared to the theoretical values (t-test) for statistical purposes. […] Subsequently, the experimental combined doses were determined for the same paradigms in the 6 Hz seizure test (Table 4 below).

human mGlu2 receptor = target: T1, human mGlu2 receptor (Homo sapiens, UniProt Q14416); assay: [35S]GTPγS binding assay, mGluR2 PAM; assay type: biochemical; conditions: for GTPγS-hmGluR2 PAM pEC50 / EC50: in presence of EC20 glutamate; for EC50: read-out: GTPγS-hmGluR2 PAM pEC50 (converted)
T1 construct: expressed in transfected cells; host or cells: CHO cells
T1 sequence (Q14416 19-872): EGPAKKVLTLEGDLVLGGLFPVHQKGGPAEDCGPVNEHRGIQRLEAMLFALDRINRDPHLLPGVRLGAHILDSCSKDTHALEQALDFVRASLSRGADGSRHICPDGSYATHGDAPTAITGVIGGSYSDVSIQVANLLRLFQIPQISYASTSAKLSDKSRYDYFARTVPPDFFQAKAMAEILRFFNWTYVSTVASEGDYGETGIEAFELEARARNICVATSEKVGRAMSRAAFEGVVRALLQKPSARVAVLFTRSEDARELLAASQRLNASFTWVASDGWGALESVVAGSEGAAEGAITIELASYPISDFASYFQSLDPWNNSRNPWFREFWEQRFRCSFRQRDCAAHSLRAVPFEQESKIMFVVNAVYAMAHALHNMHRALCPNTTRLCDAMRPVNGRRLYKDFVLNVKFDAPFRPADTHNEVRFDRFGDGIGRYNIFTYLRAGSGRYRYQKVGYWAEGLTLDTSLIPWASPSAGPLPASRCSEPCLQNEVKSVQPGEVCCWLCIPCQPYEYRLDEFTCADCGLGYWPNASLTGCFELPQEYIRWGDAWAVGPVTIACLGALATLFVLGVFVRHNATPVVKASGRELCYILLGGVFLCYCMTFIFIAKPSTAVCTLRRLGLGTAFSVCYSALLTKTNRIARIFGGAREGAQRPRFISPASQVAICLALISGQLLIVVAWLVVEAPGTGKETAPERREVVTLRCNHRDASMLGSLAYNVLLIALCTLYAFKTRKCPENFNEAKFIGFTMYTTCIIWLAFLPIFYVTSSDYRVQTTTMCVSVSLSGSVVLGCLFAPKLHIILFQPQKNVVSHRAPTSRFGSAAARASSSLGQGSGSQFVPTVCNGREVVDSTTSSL
Experimental: The [^35S]GTPγS binding assay is a functional membrane-based assay used to study G-protein coupled receptor (GPCR) function whereby incorporation of a non-hydrolysable form of GTP, [^35S]GTPγS (guanosine 5′-triphosphate, labelled with […] ^35S), is measured.
Cells were then collected by scraping in PBS and cell suspension was centrifuged (10 min at 4000 RPM in benchtop centrifuge). Supernatant was discarded and pellet gently resuspended in 50 mM Tris-HCl, pH 7.4 by mixing with a vortex and pipetting up and down. The suspension was centrifuged at 16,000 RPM (Sorvall RC-5C plus rotor SS-34) for 10 minutes and the supernatant discarded. The pellet was homogenized in 5 mM Tris-HCl, pH 7.4 using an ultra-turrax homogenizer and centrifuged again (18,000 RPM, 20 min, 4° C.). The final pellet was resuspended in 50 mM Tris-HCl, pH 7.4 and stored at-80° C. in appropriate aliquots before use. Protein concentration was determined by the Bradford method (Bio-Rad, USA) with bovine serum albumin as standard.
Measurement of mGluR2 positive allosteric modulatory activity of test compounds was performed as follows. Test compounds and glutamate were diluted in assay buffer containing 10 mM HEPES acid, 10 mM HEPES salt, pH 7.4, 100 mM NaCl, 3 mM MgCl2 and 10 μM GDP. Human mGlu2 receptor-containing membranes were thawed on ice and diluted in assay buffer supplemented with 14 μg/ml saponin. Membranes were pre-incubated with compound alone or together with a predefined (˜EC20) concentration of glutamate (PAM assay) for 30 min at 30° C. After addition of [^35S] GTPγS (f.c. 0.1 nM), assay mixtures were shaken briefly and further incubated to allow [^35S] GTPγS incorporation on activation (30 minutes, 30° C.). Final assay mixtures contained 7 μg of membrane protein in 10 mM HEPES acid, 10 mM HEPES salt, pH 7.4, 100 mM NaCl, 3 mM MgCl2, 10 µM GDP and 2 μg/ml saponin. Total reaction volume was 200 μl. Reactions were terminated by rapid filtration through Unifilter-96 GF/B plates (Perkin Elmer, Massachusetts, USA) using a 96-well filtermate universal harvester. Filters were washed 6 times with ice-cold 10 mM NaH2PO4/10 mM Na2HPO4, pH 7.4. Filters were then air-dried, and 40 μl of liquid scintillation cocktail (Microscint-O) was added to each well. Membrane-bound radioactivity was counted in a Microplate Scintillation and Luminescence Counter from Perkin Elmer.
The concentration-response curves of representative compounds of the present invention-obtained in the presence of EC20 of mGluR2 agonist glutamate to determine positive allosteric modulation (PAM)—were generated using the Lexis software interface (developed at J&J). Data were calculated as % of the control glutamate response, defined as the maximal response that is generated upon addition of glutamate alone. Sigmoid concentration-response curves plotting these percentages versus the log concentration of the test compound were analyzed using non-linear regression analysis. The concentration producing half-maximal effect is then calculated as EC50. The pEC50 values below were calculated as the −log EC50, when the EC50 is expressed in M. Emax is defined as relative maximal effect (i.e. maximal % effect relative to the control glutamate response).

[2] = Minimal motor impairment (rotarod); assay type: in vivo, mice; conditions: [CAS 1092453-15-0] 20 mg/kg, alone
Experimental: Acute MMI was assessed by a combination of direct observations of the animal for overt symptoms of the animal's neurological or muscular function. In mice, the rotarod procedure was used to disclose minimal muscular or neurological impairment. When a mouse is placed on a rod that rotates at a speed of 6 rpm, the animal can maintain its equilibrium for long periods of time. The animal was considered toxic if it fell off this rotating rod three times during a 1 min period.
In the determination of an ED50 or TD50 for each test compound, the first dose administered is usually the same dose as that used in a successful TPE determination.
If the initial dose employed was effective or toxic in more than 50% of animals, the next dose would be one-half that of the initial dose; if the initial dose was effective or toxic in less than 50% of animals, the following dose would be twice that of the initial dose. Third and fourth doses were selected to produce an evenly spaced dose response line. There should be a minimum of 4 points either including or lying between 0 and 100%.

[3] = maximal % effect relative to control glutamate response, EC20 glutamate, read-out: GTPγS-hmGluR2 PAM Emax

For `Cc1cc(-c2nc(CN3CCNCC3)no2)cc2c1C(=O)N(Cc1ccc(OC(F)(F)F)cc1)C2` [[CAS 1092453-15-0]], the responders at 20 mg/kg [1] was 0%, the Emax (human mGlu2 receptor; GTPγS assay, read-out: Emax) was 197% and the “# rotarod motor impairment/# tested” value [2] was 0/8.

Compound `C[C@H](Oc1cc(F)cc(F)c1)c1ccn2c(CC3CC3)nnc2c1C(F)(F)F` [Co. No. 7-b, 3-(Cyclopropylmethyl)-7-[(1S)-1-(3,5-difluorophenoxy)ethyl]-8-(trifluoromethyl)[1,2,4]triazolo[4,3-a]pyridine] has an Emax (human mGlu2 receptor; [3]) of 292%.

In the case of `C[C@@H](Oc1ccc(F)cc1F)c1ccn2c(CC3CC3)nnc2c1C(F)(F)F` [Co. No. 5-b, 3-(Cyclopropylmethyl)-7-[(1R)-1-(2,4-difluorophenoxy)ethyl]-8-(trifluoromethyl)[1,2,4]triazolo[4,3-a]pyridine], the Emax (human mGlu2 receptor; [3]) is reported as 141%.

`CC(Oc1ccc(F)cc1F)c1ccn2c(CC3CC3)nnc2c1C(F)(F)F` (stereo not drawn) [Co. No. 4-b, 3-(Cyclopropylmethyl)-7-[1-(2,4-difluorophenoxy)ethyl]-8-(trifluoromethyl)[1,2,4]triazolo-[4,3-a]pyridine] showed an Emax (human mGlu2 receptor; [3]) of 329%.

For `O=c1c(Cl)c(N2CCC(c3ccccc3F)CC2)ccn1CC1CC1` [Co. No. 12-a], the “GTPγS-hmGluR2 PAM pEC50” value (human mGlu2 receptor) was 7.03 and the Emax (human mGlu2 receptor; [3]) was 242%.

`Cc1cc(F)ccc1O[C@@H](C)c1ccn2c(CC3CC3)nnc2c1C(F)(F)F` [Co. No. 14-b, 3-(Cyclopropylmethyl)-7-[(1S)-1-(4-fluoro-2-methylphenoxy)ethyl]-8-(trifluoromethyl)[1,2,4]triazolo[4,3-a]pyridine] showed an Emax (human mGlu2 receptor; [3]) of 281%.

`Cc1ccc(O[C@@H](C)c2ccn3c(CC4CC4)nnc3c2C(F)(F)F)c(Cl)c1` [Co. No. 13-b, 7-[(1S)-1-(2-Chloro-4-methylphenoxy)ethyl]-3-(cyclopropylmethyl)-8-(trifluoromethyl)[1,2,4]triazolo[4,3-a]pyridine] gave an Emax (human mGlu2 receptor; [3]) of 280%.

For `CCCc1nnc2c(C(F)(F)F)c(C(C)Oc3ccc(F)cc3F)ccn12` (single isomer, unassigned) [Co. No. 31-b], the EC50 (human mGlu2 receptor) was 89.1 nM and the “GTPγS-hmGluR2 PAM Emax” value (human mGlu2 receptor; maximal % effect relative to control glutamate response, EC20 glutamate, listed as 31-b) was 251%.

With `CCOCc1nnc2c(C(F)(F)F)c(C(C)Oc3c(F)cc(F)cc3F)ccn12` (single isomer, unassigned) [Co. No. 23-b, 3-(Ethoxymethyl)-8-(trifluoromethyl)-7-[(1*S)-1-(2,4,6-trifluorophenoxy)ethyl][1,2,4]triazolo[4,3-a]pyridine] the “GTPγS-hmGluR2 PAM Emax” value (human mGlu2 receptor; maximal % effect relative to control glutamate response, EC20 glutamate, listed as 23-b) was 167%.

For `CCOCc1nnc2c(C(F)(F)F)c(C(C)Oc3ccc(F)cc3F)ccn12` (single isomer, unassigned) [Co. No. 20-b, 7-[(1*R)-1-(2,4-Difluorophenoxy)ethyl]-3-(ethoxymethyl)-8-(trifluoromethyl)[1,2,4]triazolo[4,3-a]pyridine], the “GTPγS-hmGluR2 PAM Emax” value (human mGlu2 receptor; maximal % effect relative to control glutamate response, EC20 glutamate, listed as 20-b) was 332%.

`O=c1c(C2CC2)c(N2CCC(c3ccccc3)CC2)ccn1CC1CC1` [Co. No. 8-a] showed an Emax (human mGlu2 receptor; [3]) of 157%.

With `CC(Oc1ccc(F)cc1)c1ccn2c(CC3CC3)nnc2c1C(F)(F)F` (stereo not drawn) [Co. No. 1-b, 3-(Cyclopropylmethyl)-7-[1-(4-fluorophenoxy)ethyl]-8-(trifluoromethyl)[1,2,4]triazolo-[4,3-a]pyridine] the Emax (human mGlu2 receptor; [3]) was 296%.

With `O=c1c(Cl)c(N2CCC(c3ccccc3)CC2)ccn1CCC1CC1` [Co. No. 10-a] the “GTPγS-hmGluR2 PAM pEC50” value (human mGlu2 receptor) was 6.88 and the Emax (human mGlu2 receptor; [3]) was 290%.

`CCCCn1ccc(N2CCC(CO)(c3ccccc3)CC2)c(Cl)c1=O` [Co. No. 22-a] showed an Emax (human mGlu2 receptor; [3]) of 259%.

Compound `CCCCn1ccc(N2CCC(F)(c3ccccc3)CC2)c(Cl)c1=O` [Co. No. 7-a] has an EC50 (human mGlu2 receptor) of 229 nM and an Emax (human mGlu2 receptor; [3]) of 291%.

In the case of `CC(C)CCn1ccc(N2CCC(c3ccc(F)cc3F)CC2)c(Cl)c1=O` [Co. No. 24-a], the “GTPγS-hmGluR2 PAM pEC50” value (human mGlu2 receptor) is reported as 6.91 and the Emax (human mGlu2 receptor; [3]) is reported as 258%.

Work on `COc1cnc(N2CCN(c3ccn4c(CC5CC5)nnc4c3C(F)(F)F)CC2)nc1` [Co. No. 9] yielded an EC50 (human mGlu2 receptor) of 126 nM and an Emax (human mGlu2 receptor; [3]) of 462%.

Work on `CC1(C)OC2(CCN(c3ccn4c(CC5CC5)nnc4c3C(F)(F)F)CC2)c2ccc(F)cc21` [Co. No. 7] yielded an Emax (human mGlu2 receptor; [3]) of 263%.

With `CCCCn1ccc(N2CCC(c3ccc(C(C)(C)O)cc3F)CC2)c(Cl)c1=O` [Co. No. 29-a] the EC50 (human mGlu2 receptor) was 107 nM and the Emax (human mGlu2 receptor; [3]) was 317%.

Work on `CCCCn1ccc(N2CCC3(CC2)COc2ccccc23)c(Cl)c1=O` [Co. No. 33-a] yielded an EC50 (human mGlu2 receptor) of 263 nM and an Emax (human mGlu2 receptor; [3]) of 362%.
